Data from PubChem BioAssay (NCI).
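At the GI50, growth is halved. At the TGI there is no net growth.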

Legend:
Assay in all cases: DTP human tumour cell line panel, 384-well format
SR leukemia = test system: SR leukemia
DU-145 prostate = test system: DU-145 prostate
SF-268 CNS = test system: SF-268 CNS
OVCAR-4 ovarian = test system: OVCAR-4 ovarian
T-47D breast = test system: T-47D breast
SN12C renal = test system: SN12C renal
MALME-3M melanoma = test system: MALME-3M melanoma
UO-31 renal = test system: UO-31 renal
SK-OV-3 ovarian = test system: SK-OV-3 ovarian
MOLT-4 leukemia = test system: MOLT-4 leukemia
EKVX NSCLC = test system: EKVX NSCLC
OVCAR-8 ovarian = test system: OVCAR-8 ovarian
MCF7 breast = test system: MCF7 breast
HT29 colon = test system: HT29 colon
HOP-92 NSCLC = test system: HOP-92 NSCLC
HL-60(TB) leukemia = test system: HL-60(TB) leukemia
BT-549 breast = test system: BT-549 breast
UACC-257 melanoma = test system: UACC-257 melanoma
NCI-H322M lung = test system: NCI-H322M lung
SK-MEL-28 melanoma = test system: SK-MEL-28 melanoma
TK-10 renal = test system: TK-10 renal
K-562 leukemia = test system: K-562 leukemia
CAKI-1 renal = test system: CAKI-1 renal
MDA-MB-435 melanoma = test system: MDA-MB-435 melanoma
ACHN renal = test system: ACHN renal
SNB-75 CNS = test system: SNB-75 CNS
PC-3 prostate = test system: PC-3 prostate
NCI-H226 lung = test system: NCI-H226 lung
M14 melanoma = test system: M14 melanoma
A549 NSCLC = test system: A549 NSCLC
RXF 393 renal = test system: RXF 393 renal
HOP-62 NSCLC = test system: HOP-62 NSCLC
SF-539 CNS = test system: SF-539 CNS
SF-295 CNS = test system: SF-295 CNS
786-0 renal = test system: 786-0 renal
IGROV1 ovarian = test system: IGROV1 ovarian
COLO 205 colon = test system: COLO 205 colon
HCT-15 colon = test system: HCT-15 colon
UACC-62 melanoma = test system: UACC-62 melanoma
MDA-MB-231 breast = test system: MDA-MB-231 breast
A498 renal = test system: A498 renal
NCI-H460 NSCLC = test system: NCI-H460 NSCLC
KM12 colon = test system: KM12 colon
HCT-116 colon = test system: HCT-116 colon
HS 578T breast = test system: HS 578T breast
OVCAR-5 ovarian = test system: OVCAR-5 ovarian
NCI-H23 lung = test system: NCI-H23 lung
SK-MEL-5 melanoma = test system: SK-MEL-5 melanoma
U251 glioblastoma = test system: U251 glioblastoma
MDA-MB-468 breast = test system: MDA-MB-468 breast
SNB-19 CNS = test system: SNB-19 CNS
NCI-H522 lung = test system: NCI-H522 lung
SW-620 colon = test system: SW-620 colon
OVCAR-3 ovarian = test system: OVCAR-3 ovarian
SK-MEL-2 melanoma = test system: SK-MEL-2 melanoma

O=C(Nc1ccc2[nH]nc(-c3ccncc3)c2c1)[C@@H]1CCN(CC(=O)N2CCN(c3ccc(-c4ncccn4)cc3)CC2)C1
GI50 (SR leukemia): 2.68 µM | TGI (SR leukemia): 12 µM | GI50 (DU-145 prostate): 4.59 µM | TGI (DU-145 prostate): > 100 µM | GI50 (SF-268 CNS): 17.9 µM | TGI (SF-268 CNS): 73.4 µM | GI50 (OVCAR-4 ovarian): 48.4 µM | TGI (OVCAR-4 ovarian): > 100 µM | GI50 (T-47D breast): 2.96 µM | TGI (T-47D breast): 9.04 µM | GI50 (SN12C renal): 2.28 µM | TGI (SN12C renal): > 100 µM | TGI (MALME-3M melanoma): 0.0442 µM | GI50 (UO-31 renal): 2.28 µM | TGI (UO-31 renal): 16.1 µM | GI50 (SK-OV-3 ovarian): 20.3 µM | TGI (SK-OV-3 ovarian): 90.7 µM | GI50 (MOLT-4 leukemia): 1.42 µM | TGI (MOLT-4 leukemia): 3 µM | GI50 (EKVX NSCLC): 2.28 µM | TGI (EKVX NSCLC): 83 µM | GI50 (OVCAR-8 ovarian): 2.83 µM | TGI (OVCAR-8 ovarian): 15 µM | GI50 (MCF7 breast): 11.6 µM | TGI (MCF7 breast): 26.9 µM | GI50 (HT29 colon): 0.069 µM | TGI (HT29 colon): 14.2 µM | GI50 (HOP-92 NSCLC): 0.417 µM | TGI (HOP-92 NSCLC): 2.18 µM | GI50 (HL-60(TB) leukemia): 0.0163 µM | TGI (HL-60(TB) leukemia): 1.26 µM | GI50 (BT-549 breast): 2.71 µM | TGI (BT-549 breast): 16.6 µM | GI50 (UACC-257 melanoma): 0.0268 µM | TGI (UACC-257 melanoma): 0.271 µM | GI50 (NCI-H322M lung): 0.623 µM | TGI (NCI-H322M lung): 31.6 µM | GI50 (SK-MEL-28 melanoma): 0.0186 µM | TGI (SK-MEL-28 melanoma): 0.174 µM | GI50 (TK-10 renal): 0.853 µM | TGI (TK-10 renal): > 100 µM | GI50 (K-562 leukemia): 0.273 µM | TGI (K-562 leukemia): 12.8 µM | GI50 (CAKI-1 renal): 0.507 µM | TGI (CAKI-1 renal): 20.6 µM | GI50 (MDA-MB-435 melanoma): 0.0652 µM | TGI (MDA-MB-435 melanoma): > 100 µM | GI50 (ACHN renal): 8.76 µM | TGI (ACHN renal): > 100 µM | GI50 (SNB-75 CNS): 11.6 µM | TGI (SNB-75 CNS): 25.4 µM | GI50 (PC-3 prostate): 5.37 µM | TGI (PC-3 prostate): 20.5 µM | GI50 (NCI-H226 lung): 0.735 µM | TGI (NCI-H226 lung): 14.6 µM | GI50 (M14 melanoma): 0.0253 µM | TGI (M14 melanoma): 0.198 µM | GI50 (A549 NSCLC): 0.628 µM | TGI (A549 NSCLC): > 100 µM | GI50 (RXF 393 renal): 1.05 µM | TGI (RXF 393 renal): 3.55 µM | GI50 (HOP-62 NSCLC): 0.661 µM | TGI (HOP-62 NSCLC): 17.4 µM | GI50 (SF-539 CNS): 0.69 µM | TGI (SF-539 CNS): 9.72 µM | GI50 (SF-295 CNS): 13.1 µM | TGI (SF-295 CNS): 37.8 µM | GI50 ([…]-0 renal): 9.92 µM | TGI (786-0 renal): 23.6 µM | GI50 (IGROV1 ovarian): 0.438 µM | TGI (IGROV1 ovarian): 35.7 µM | GI50 (COLO 205 colon): 0.0281 µM | TGI (COLO 205 colon): 0.43 µM | GI50 (HCT-15 colon): 5.45 µM | TGI (HCT-15 colon): 29.1 µM | GI50 (UACC-62 melanoma): 0.0166 µM | TGI (UACC-62 melanoma): 0.385 µM | GI50 (MDA-MB-231 breast): 0.315 µM | TGI (MDA-MB-231 breast): 32.9 µM | GI50 (A498 renal): 1.78 µM | TGI (A498 renal): 10 µM | GI50 (NCI-H460 NSCLC): 0.379 µM | TGI (NCI-H460 NSCLC): 17.6 µM | GI50 (KM12 colon): 5.61 µM | TGI (KM12 colon): > 100 µM | GI50 (HCT-116 colon): 0.0687 µM | TGI (HCT-116 colon): 1.26 µM | GI50 (HS 578T breast): 10.8 µM | TGI (HS 578T breast): 36 µM | GI50 (OVCAR-5 ovarian): 0.16 µM | TGI (OVCAR-5 ovarian): > 100 µM | GI50 (NCI-H23 lung): 0.0571 µM | TGI (NCI-H23 lung): 0.678 µM | GI50 (SK-MEL-5 melanoma): 0.0781 µM | TGI (SK-MEL-5 melanoma): 4.43 µM | GI50 (U251 glioblastoma): 1.79 µM | TGI (U251 glioblastoma): 22.2 µM | GI50 (MDA-MB-468 breast): 3.55 µM | TGI (MDA-MB-468 breast): 33.8 µM | GI50 (SNB-19 CNS): > 100 µM | TGI (SNB-19 CNS): > 100 µM | GI50 (NCI-H522 lung): 9.33 µM | TGI (NCI-H522 lung): 22.1 µM | GI50 (SW-620 colon): 0.0863 µM | TGI (SW-620 colon): > 100 µM | GI50 (OVCAR-3 ovarian): 19.8 µM | TGI (OVCAR-3 ovarian): > 100 µM | GI50 (SK-MEL-2 melanoma): 0.0375 µM | TGI (SK-MEL-2 melanoma): 0.192 µM
